The results in this text go back to ChEMBL document CHEMBL1144883, “Design, synthesis, and SAR of potent and selective dipeptide-derived inhibitors for dipeptidyl peptidases” (J Med Chem, 2003).

A word on the IC50: it is the concentration that inhibits the measured activity by half. Read a high IC50 as a need for much substance.

Structures are written as SMILES.

Assay [1] has as its target T1, Dipeptidyl peptidase 4 (Homo sapiens, UniProt P27487).
For assay [2], the target named is T2, Dipeptidyl peptidase 2 (Homo sapiens, UniProt Q9UHL4).
The target of assay [3] is T1, Dipeptidyl peptidase 4. The source holds these as a separate data set.
In assay [4] the target is T2, Dipeptidyl peptidase 2. The source holds these as a separate data set.
The target of assay [5] is T2, Dipeptidyl peptidase 2. The experiment in a line: Inhibitory activity of compound against Dipeptidylpeptidase II (DPP II).

T1 sequence (P27487 whole entry): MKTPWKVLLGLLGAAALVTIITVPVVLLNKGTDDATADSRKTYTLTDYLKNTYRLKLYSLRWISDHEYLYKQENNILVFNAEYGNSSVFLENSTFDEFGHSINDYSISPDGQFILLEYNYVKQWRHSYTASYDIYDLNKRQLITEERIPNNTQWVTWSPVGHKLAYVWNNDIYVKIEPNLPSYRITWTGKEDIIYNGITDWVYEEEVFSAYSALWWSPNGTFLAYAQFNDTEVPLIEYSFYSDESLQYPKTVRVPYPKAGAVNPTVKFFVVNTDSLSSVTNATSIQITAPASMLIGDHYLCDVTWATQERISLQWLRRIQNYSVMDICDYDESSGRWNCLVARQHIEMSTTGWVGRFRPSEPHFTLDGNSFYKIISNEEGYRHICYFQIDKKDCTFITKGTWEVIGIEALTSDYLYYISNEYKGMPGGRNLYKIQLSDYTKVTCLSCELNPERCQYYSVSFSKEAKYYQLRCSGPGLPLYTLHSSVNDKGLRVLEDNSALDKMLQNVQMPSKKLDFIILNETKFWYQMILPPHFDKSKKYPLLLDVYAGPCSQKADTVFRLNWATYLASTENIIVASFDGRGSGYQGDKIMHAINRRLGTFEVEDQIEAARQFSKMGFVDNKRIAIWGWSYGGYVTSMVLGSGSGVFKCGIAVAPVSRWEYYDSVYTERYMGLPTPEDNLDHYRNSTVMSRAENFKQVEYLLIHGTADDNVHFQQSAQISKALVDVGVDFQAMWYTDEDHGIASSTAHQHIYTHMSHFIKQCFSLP

For `NCC(N)C(=O)N1CCCCC1` (stereo not drawn), the IC50 at Dipeptidyl peptidase 4 [1] is greater than 1000 µM; at Dipeptidyl peptidase 2 [2], 1.84 µM.
For the compound `NCCCCC(N)C(=O)N1CCC(O)C1` (stereo not drawn), the IC50 was found to be 500 µM at Dipeptidyl peptidase 4 [1] and 48 µM at Dipeptidyl peptidase 2 [2].
In the case of `CCC(C)C(N)C(=O)N1CCC(N=[N+]=[N-])C1` (stereo not drawn), the IC50 against Dipeptidyl peptidase 4 [1] was found to be 107 µM; against Dipeptidyl peptidase 2 [2], 43 µM.
As for `NC(C(=O)N1CCCCC1)C1CCCCC1` (stereo not drawn), the IC50 was 217 µM against Dipeptidyl peptidase 4 [1] and 9.9 µM against Dipeptidyl peptidase 2 [2].
With `NCCCC[C@H](N)C(=O)N1CCCCC1` (stereo in doubt; 8.4), the figures for the half-inhibitory concentration (IC50) against Dipeptidyl peptidase 4 [1] and against Dipeptidyl peptidase 2 [2] were 247 µM and 1.6 µM, respectively.
As for `N#CC1CCCCN1C(=O)C(N)CCCCN` (stereo not drawn), the figures for the IC50 on Dipeptidyl peptidase 4 [1] and on Dipeptidyl peptidase 2 [2] were 51 µM and 1.5 µM, respectively.
As to `NCCCCC(N)C(=O)N1CCSC1` (stereo not drawn), the IC50 is 318 µM against Dipeptidyl peptidase 4 [3], 3 µM on Dipeptidyl peptidase 2 [4], 318 µM against Dipeptidyl peptidase 4 [1] and 3 µM on Dipeptidyl peptidase 2 [2].
With `NCCCCC(N)C(=O)N1CCC1` (stereo not drawn), the results for the IC50 at Dipeptidyl peptidase 4 [1] and against Dipeptidyl peptidase 2 [2] were 500 µM and 159 µM, respectively.
As to `NCCC(N)C(=O)N1CCNCC1` (stereo not drawn), the IC50 against Dipeptidyl peptidase 4 [1] was greater than 1000 µM; against Dipeptidyl peptidase 2 [2], 29.3 µM.
In the case of `NCCCCC(N)C(=O)N1CCC(OC(=O)c2ccccc2)C1` (stereo not drawn), the values for the IC50 at Dipeptidyl peptidase 4 [1] and at Dipeptidyl peptidase 2 [2] were greater than 1000 µM and 78.1 µM, respectively.
Regarding `NCC(=O)N1CCCC1`, the IC50 at Dipeptidyl peptidase 2 [2] is greater than 1000 µM.
Take `CCC(C)C(N)C(=O)N1CCC(OC(=O)c2ccccc2)C1` (stereo not drawn): the IC50 against Dipeptidyl peptidase 4 [1] is greater than 500 µM; on Dipeptidyl peptidase 2 [2], 158 µM.
On to `CCC(C)C(N)C(=O)N1CCCCCC1` (stereo not drawn), for which the IC50 against Dipeptidyl peptidase 4 [1] amounted to 374 µM; on Dipeptidyl peptidase 2 [2] it was 228 µM.
For `CCC(N)C(=O)N1CCCCC1` (stereo not drawn), in that order: 250 µM and 88.7 µM.
On Dipeptidyl peptidase 2 [2], `O=C([C@@H]1CCCN1)N1CCCC1` yielded an IC50 greater than 500 µM.
As to `CCC(C)C(N)C(=O)N1CCC1` (stereo not drawn), the values for the IC50 against Dipeptidyl peptidase 4 [1] and at Dipeptidyl peptidase 2 [2] were 50.4 µM and 730 µM, respectively.
As to `CCC(C)C(N)C(=O)N(C)CC` (stereo not drawn), the IC50 was 167 µM against Dipeptidyl peptidase 4 [1] and greater than 500 µM against Dipeptidyl peptidase 2 [2].
Turning to `NC(CO)C(=O)N1CCCCC1` (stereo not drawn), the figures for the IC50 against Dipeptidyl peptidase 4 [1] and at Dipeptidyl peptidase 2 [2] were 67 µM and 62 µM, respectively.
`CCC(C)C(N)C(=O)N1CC=CC1` (stereo not drawn) yielded an IC50 at Dipeptidyl peptidase 2 [2] of 288 µM.
Turning to `[N-]=[N+]=NC1CCN(C(=O)C(N)CCCCN)C1` (stereo not drawn), half-maximal inhibition on Dipeptidyl peptidase 2 [2] (IC50) was put at 4.9 µM.
For the compound `CCCN(C)C(=O)C(N)C(C)CC` (stereo not drawn), the IC50 against Dipeptidyl peptidase 4 [1] turned out to be 377 µM; on Dipeptidyl peptidase 2 [2], 213 µM.
With `NCCC[C@H](N)C(=S)N1CCCCC1`, the half-maximal inhibitory concentration (IC50) against Dipeptidyl peptidase 4 [1] was greater than 1000 µM; on Dipeptidyl peptidase 2 [2], 0.2 µM.
In the same order, the values of `CCCC(N)C(=O)N1CCCCC1` (stereo not drawn) are 229 µM and 57.1 µM.
`O=C(C1CCCS1)N1CCCC1` (stereo not drawn): the IC50 against Dipeptidyl peptidase 4 [1] and on Dipeptidyl peptidase 2 [2] was greater than 500 µM each time.
Turning to `NCCC(N)C(=O)N1CCOCC1` (stereo not drawn), the IC50 was greater than 1000 µM against Dipeptidyl peptidase 4 [1] and 0.51 µM against Dipeptidyl peptidase 2 [2].
In the case of `CCCCC(N)C(=O)N1CCCCC1` (stereo not drawn), the figures for the IC50 against Dipeptidyl peptidase 4 [1] and on Dipeptidyl peptidase 2 [2] were 250 µM and 32.4 µM, respectively.
In the case of `N=C(N)NCCCC(N)C(=O)N1CCCCC1` (stereo not drawn), the IC50 was 18.1 µM against Dipeptidyl peptidase 4 [1] and 0.63 µM against Dipeptidyl peptidase 2 [2].
Take `NCCCC[C@H](N)C(=O)N1CCCCC1` (stereo in doubt; 9.5): the results for the IC50 against Dipeptidyl peptidase 4 [1] and on Dipeptidyl peptidase 2 [2] were 135 µM and 2.1 µM, respectively.
For the compound `NCCCCC(N)C(=O)N1CC=CCC1` (stereo not drawn), the values for the IC50 against Dipeptidyl peptidase 4 [1] and at Dipeptidyl peptidase 2 [2] were greater than 500 µM and 10.9 µM, respectively.
As to `NCCCC(N)C(=O)N1CCSC1` (stereo not drawn), the results for the IC50 on Dipeptidyl peptidase 4 [1] and against Dipeptidyl peptidase 2 [2] were 81 µM and 0.75 µM, respectively.
Regarding `N[C@@H](CC(=O)O)C(=O)N1CCCC1`, the IC50 against Dipeptidyl peptidase 2 [2] is greater than 500 µM.
As for `CCC(C)C(N)C(=O)N1CC=CCC1` (stereo not drawn), the IC50 on Dipeptidyl peptidase 4 [1] and against Dipeptidyl peptidase 2 [2] was 52 µM in each case.
On to `NCC[C@H](N)C(=S)N1CCCCC1`, for which the IC50 against Dipeptidyl peptidase 4 [1] was greater than 1000 µM; against Dipeptidyl peptidase 2 [2], 0.22 µM.
Take `N#C[C@@H]1CCCCN1C(=O)C(N)CCN` (stereo partly drawn): the IC50 is 151 µM against Dipeptidyl peptidase 4 [1] and 0.038 µM against Dipeptidyl peptidase 2 [5].
Consider `N#C[C@@H]1CCCN1C(=O)[C@@H](N)CCCCN`, for which the IC50 at Dipeptidyl peptidase 4 [1] was 0.32 µM; at Dipeptidyl peptidase 2 [2] it was 1 µM.
`CCC(C)C(N)C(=O)N1CCCCC1` (stereo not drawn) registered a half-maximal inhibitory concentration (IC50) on Dipeptidyl peptidase 2 [2] of 59 µM.
`CCC(C)C(N)C(=O)N(C)C` (stereo not drawn): the values for the IC50 at Dipeptidyl peptidase 4 [1] and on Dipeptidyl peptidase 2 [2] were 360 µM and greater than 1000 µM, respectively.
Turning to `CCC(C)C(N)C(=O)N1CCC(F)C1` (stereo not drawn), the results for the IC50 at Dipeptidyl peptidase 4 [1] and on Dipeptidyl peptidase 2 [2] were 3.5 µM and 111 µM, respectively.
In the case of `CCC(C)C(N)C(=O)NC1CCCC1` (stereo not drawn), the figures for the IC50 at Dipeptidyl peptidase 4 [1] and against Dipeptidyl peptidase 2 [2] were greater than 1000 µM and 500 µM, respectively.
As for `O=C(CNC1CCCC1)NC(c1ccccc1)P(=O)(Oc1ccccc1)Oc1ccccc1` (stereo not drawn), on Dipeptidyl peptidase 4 [1], the half-maximal inhibitory concentration (IC50) was greater than 125 µM.
As to `NCCC(N)C(=O)N1CCCCC1` (stereo in doubt; 9.10), the IC50 at Dipeptidyl peptidase 4 [1] was greater than 1000 µM; on Dipeptidyl peptidase 2 [2], 191 µM.
With `NCCCC[C@@H](N)C(=S)N1CCCCC1`, the values for the IC50 at Dipeptidyl peptidase 4 [1] and at Dipeptidyl peptidase 2 [2] were greater than 1000 µM and 0.49 µM, respectively.
For `NCCC(N)C(=O)N1CCCCC1` (stereo in doubt; 9.7), in that order: greater than 1000 µM and 0.13 µM.
In the case of `NCCC(N)C(=O)N1CCSC1` (stereo not drawn), the figures for the IC50 against Dipeptidyl peptidase 4 [1] and at Dipeptidyl peptidase 2 [2] were 289 µM and 0.14 µM, respectively.
On to `CCC(C)C(N)C(=O)N1CCC(O)C1` (stereo not drawn), for which the IC50 at Dipeptidyl peptidase 4 [1] was 93 µM; against Dipeptidyl peptidase 2 [2], 299 µM.
In the same order, the values of `NCCC(N)C(=O)N1CCCCC1` (stereo in doubt; 9.9) are 500 µM and 1.15 µM.
For the compound `CCC(C)C(N)C(=O)N(CC)CC` (stereo not drawn), the IC50 on Dipeptidyl peptidase 4 [1] and on Dipeptidyl peptidase 2 [2] was greater than 500 µM each time.
Regarding `NCC[C@@H](N)C(=O)N1CCCCC1`, the concentration for half-maximal inhibition (IC50) on Dipeptidyl peptidase 4 [1] was greater than 1000 µM; against Dipeptidyl peptidase 2 [2], 130 µM.
Regarding `NCCCCC(N)C(=O)N1CCCCCC1` (stereo not drawn), the 50% inhibitory concentration (IC50) against Dipeptidyl peptidase 4 [1] was greater than 1000 µM; at Dipeptidyl peptidase 2 [2], 51.9 µM.
